Data set [1] in a line: Chemical stability of MPs in aqueous solution, monitored by HPLC. The data set is classed as physicochemical. Particulars: aqueous solution pH 6.8, 21° C., monitored at 24 h intervals up to 3 weeks. The protocol: Aqueous solutions of MPs (50 μg ml-1; pH 6.8) were incubated at 21° C. in amber HPLC vials. For sample preparation, 50 μl of an acetone solution (1 mg ml-1) was diluted to the final concentration with methanol (425 μl), water (500 μl) and 25 μl of 1-Indanol (1.0 mg ml-1 solution in acetone) as internal standard. […] The column was operated at 35° C. with a flow rate of 0.25 ml per min. Compounds eluted from the column were detected with a Diode array detector. Relative quantity of remaining (non-degraded) product was determined by comparison to the internal standard.

A further data set relates to S. hermonthica seeds. Description: Striga hermonthica seed germination bioassay. Particulars: for Relative activity in inducing S. hermonthica seed germination: comparison between compounds. In kind it is in vivo. The protocol:
Parasitic weed seeds (S. hermonthica and P. ramosa) germination activity was recorded as described previously (Jamil et al., 2012). Six pre-conditioned seed discs were placed in a 90 mm petri-dish containing a filter paper ring wetted with 0.9 ml sterile MilliQ water. […] GR24 solutions with equal concentrations and sterile MilliQ water were included as a positive and negative control, respectively. After application, seeds were incubated at 30° C./25° C. in the dark for two days. Germination (seeds with radical emerging through seed coat) was scored under a binocular microscope, and germination rate (%) was calculated. Statistical analyses were carried out using statistical software package R (version 3.2.2). Dose-response curves and Half Maximum Effective Concentrations (EC50) were calculated to determine optimum amount of MPs. Synthetic strigolactone analog GR24 was used as reference to estimate efficacy of selected compounds. EC50 and estimated response were calculated using drc package (https://cran.r390 project.org/web/packages/drc/) with a Four Parameter Logistic Curve (Dose Response Curve) (Ritz and Streibig, 2005).

For a further data set, the target named is T1, OsD14 (Oryza sativa subsp. japonica, UniProt Q10QA5).
T1 construct: made in house; host or cells: E. coli BL21 (DE3)
T1 sequence (Q10QA5 1-318): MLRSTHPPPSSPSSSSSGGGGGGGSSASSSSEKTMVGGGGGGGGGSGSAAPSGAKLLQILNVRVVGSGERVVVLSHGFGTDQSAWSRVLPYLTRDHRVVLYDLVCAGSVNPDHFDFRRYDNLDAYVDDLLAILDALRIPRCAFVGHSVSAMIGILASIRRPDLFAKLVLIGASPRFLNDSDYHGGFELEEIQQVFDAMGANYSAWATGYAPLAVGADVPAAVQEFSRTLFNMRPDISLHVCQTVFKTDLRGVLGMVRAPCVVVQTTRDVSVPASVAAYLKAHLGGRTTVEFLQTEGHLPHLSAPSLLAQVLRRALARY
The data set can be described thus: YLG (Yoshimulactone Green) competitive hydrolysis assay. In kind it is biochemical, rice. The source says: Striga hermonthica ShHTL7 cDNA, GenBank accession KR013127 was kindly provided by Prof. Tadao Asami (The University of Tokyo, Japan). Arabidopsis thaliana D14 (AtD14) cDNA, GenBank accession AY097402 was synthesized and cloned into pUC57 (GenScript). ShHTL7 and OsD14 cDNAs were amplified by RT-PCR using the primers shown in Table 2, digested with BamHI and XhoI, and ligated into BamHI/XhoI digested pGEX-6P-1 expression vector (GE Healthcare). Integrity of plasmids was confirmed by sequencing (KAUST Bioscience Core Lab). The plasmids were then transformed into E. coli BL21 (DE3) cells. The cells were grown in LB broth containing ampicillin ([…]), incubated at 37° C. until OD600 of 0.6 and induced with 0.1 mM isopropyl-β-D-thiogalactopyranoside (IPTG) at 16° C. for 16 h. Harvested cells were re-suspended in lysis buffer: 50 mM Tris-HCl (pH 8.0), 200 mM NaCl, 0.5% Tween-20 and 2 mM dithiothreitol (DTT). After sonication on ice for 10 mins, the lysate was centrifuged at 25,000 rpm for 30 min at 4° C. Supernatant was allowed to bind to glutathione-sepharose beads (GE Healthcare) for 2 h at 4° C., washed 3 times with buffer (50 mM Tris-HCl (pH 8.0), 200 mM NaCl, 2 mM DTT), and eluted by cleaving GST moiety with PreScission™ Protease (GE Healthcare) at 4° C. overnight. Eluted protein was further purified by gel filtration using HiLoad 16/60 Superdex200 prep grade column (GE Healthcare) on an AKTA prime system (GE Healthcare) in gel filtration buffer (10 mM HEPES pH 7.5, 50 mM KCl and 2 mM DTT). Protein eluted as a sharp single peak and purity was judged by 4-15% SDS-PAGE (Bio-Rad). Purified protein was concentrated using an Amicon 10K filter unit (Merck Millipore) and stored at −80° C. until use. Similar expression and purification protocol was followed for OsD14 protein, except that OsD14 was eluted from Glutathione resins using 0.2 mM reduced Glutathione (Sigma) without cutting GST tag.
In vitro YLG hydrolysis assays were performed as described by Tsuchiya et al., 2015. Hydrolysis assays were carried out using 0.15 μM of recombinant protein OsD14 in a reaction buffer (100 mM PBS buffer, pH 7.3) with 0.1% dimethylsulfoxide (DMSO) at a 300 μl volume on a 96-well black plate (Thermo). For competitive assays, (±) GR24 and (±) MPs at range between 0.03 to 10 μM (or 100 μM) were co-incubated with 0.3 μM of YLG and reacted at 30° C. incubator for 15 min. Fluorescent intensity was measured with excitation at 485 nm and detected at 535 nm. IC50 values were calculated online (http://www.ic50.tk/index.html). Later, values were converted to the existing conditions when treated by 1.0 μM of recombinant proteins.

The target in the next data set is T2, ShHTL7 (Striga hermonthica, UniProt A0A0M3PNA2).
T2 sequence (A0A0M3PNA2 1-271): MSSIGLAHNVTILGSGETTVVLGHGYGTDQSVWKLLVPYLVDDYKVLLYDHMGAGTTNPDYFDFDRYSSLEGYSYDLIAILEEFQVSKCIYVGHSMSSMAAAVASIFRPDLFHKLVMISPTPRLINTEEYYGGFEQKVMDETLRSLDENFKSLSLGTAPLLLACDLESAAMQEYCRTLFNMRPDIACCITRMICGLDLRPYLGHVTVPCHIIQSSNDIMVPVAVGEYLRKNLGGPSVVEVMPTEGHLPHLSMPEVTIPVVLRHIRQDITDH
The data set can be described thus: In vitro hydrolysis assay with ShHTL7 (HPLC). The data set is classed as biochemical. Particulars: 10 μM substrate, 37° C.

Structures are written as SMILES. “Also recorded” adds a separate entry of the source. Read-outs that look alike come from different tables or passages of the source.

These results are taken from patent US11903386B2, “Strigolactone analogs and their usage in plant control” (King Abdullah University of Science and Technology, priority 2016, dated 2024).

One may read the IC50 as the concentration at which inhibition is half-maximal. Turning to `COC(=O)/C(=C/OC1C=C(C)C(=O)O1)c1ccc([N+](=O)[O-])cc1` (racemic) [MP1, (E)-methyl 3-(4-methyl-5-oxo-2,5-dihydrofuran-2-yloxy)-2-(4-nitrophenyl)acrylate], the “Stability in comparison to GR24” value in data set [1] is on record as “slightly less stable than GR24”. The “Relative activity in inducing S. hermonthica seed germination” value (shortened to “Relative activity”) in the data set with S. hermonthica seeds is recorded as “the most potent compound”. Also, the “Striga germination activity (EC50) relative to GR24, times weaker” value in the data set with S. hermonthica seeds (in vivo) is reported as “around 17 times”. For the same compound, the IC50 on OsD14 (with SE (n=3), read-out: IC50, competitive inhibition of OsD14 mediated YLG hydrolysis) was determined as 2.41 ± 0.175 µM. Further, on ShHTL7, the “Hydrolysis rate by ShHTL7” value is “highest hydrolysis rates”.

On to `COC(=O)/C(=C/OC1C=C(C)C(=O)O1)c1ccccc1` (racemic) [MP3, (E)-methyl 3-(4-methyl-5-oxo-2,5-dihydrofuran-2-yloxy)-2-phenylacrylate], for which the “Stability in comparison to GR24” value in data set [1] was “more stable than GR24”. Further, in the data set on S. hermonthica seeds, the “Relative activity” value was “less active than MP1”. The compound also had a concentration for half-maximal inhibition (IC50) at OsD14 of 10.1 ± 2.94 µM. Also, the “Hydrolysis rate by ShHTL7” value at ShHTL7 is “finally MP3; also recorded: higher hydrolysis activities with MP3 and MP7 than with GR24”.

As for `COC(=O)/C(=C/OC1C=C(C)C(=O)O1)c1ccc(Cl)cc1` (stereo not shown) [MP7], the “Stability in comparison to GR24” value in data set [1] is “more stable than GR24”. Also, in the data set with S. hermonthica seeds, the “Relative activity” value is “highest germination activity”. Further, the IC50 at OsD14 worked out at 4.46 ± 0.8 µM. Moreover, the “Hydrolysis rate by ShHTL7” value on ShHTL7 was “higher hydrolysis activities with MP3 and MP7 than with GR24”.
